Consider three compounds from US20110015119A1, “NOVEL SEMI-SYNTHETIC GLYCOPEPTIDES AS ANTIBACTERIAL AGENTS” (LEAD THERAPEUTICS, INC., priority 2009, published 2011).

Structures are written as SMILES. ≈ marks a conversion by molar mass, not a printed value.

Holding throughout (type): cell-based
The subject of experiment [1] is Enterococcus faecalis 101 (ATCC 29212). In words: MIC by broth microdilution, EFc 101. The conditions noted are these: Enterococcus faecalis, ATCC29212, read-out: MIC E FC 101, Enterococcus faecalis 101 (ATCC 29212); class symbols. The method, then: (§1) Antibacterial activity in vitro is investigated by broth microdilution method in Meuller-Hinton broth as recommended by NCCLS. All strains tested are clinical isolates either sensitive or resistant to natural glycopeptides. MIC values were determined using the CLSI-recommended broth microdilution procedure (Clinical and Laboratory Standards Institute, Methods for Dilution Antimicrobial Susceptibility Tests for Bacteria That Grow Aerobically; Approved Standard-Seventh Edition.). Automated liquid handlers (Multidrop 384, Labsystems, Helsinki, Finland; Biomek 2000 and Multimek 96, Beckman Coulter, Fullerton Calif.) were used to conduct serial dilutions and liquid transfers. The MIC value for vancomycin is given for comparison. The abbreviations for organisms tested are as follow: SA 100—Staphylococcus aureus 100 (ATCC 29213); SA 757—Staphylococcus aureus 757 (MRSA); SA 2012—Staphylococcus aureus 2012 (VISA); SE 835—Staphylococcus epidermidis 835; SE 831—Staphylococcus epidermidis 831 (MRSE); EFc 101—Enterococcus faecalis 101 (ATCC 29212); EFc 848—Enterococcus faecalis 848 (VRE, Van A); EFcm 800—Enterococcus faecium 800; EFcm 752—Enterococcus faecium 752 (VRE, Van A); SPNE 1195—Streptococcus pneumoniae 1195 (ATCC 49619); SPY 712—Streptococcus pyogenes 712.

Experiment [2] relates to Staphylococcus epidermidis 831 (MRSE). In words: MIC by broth microdilution, SE 831. The following applies: Staphylococcus epidermidis, MRSE, read-out: MIC SE 831. Here is the method:
as §1

Experiment [3] deals with Staphylococcus epidermidis 835. The experiment is described as follows: MIC by broth microdilution, SE 835. The following applies: Staphylococcus epidermidis, 835, read-out: MIC SE 835. The method, then:
as §1

For experiment [4], the system named is Enterococcus faecium 752 (VRE, Van A). In words: MIC by broth microdilution, EFcm 752. The following applies: Enterococcus faecium, VRE, read-out: MIC E FCM 752, Enterococcus faecium 752 (VRE, Van A); class symbols. Here is the method:
as §1

Experiment [5] concerns Staphylococcus aureus 2012 (VISA). The experiment is described as follows: MIC by broth microdilution, SA 2012. The following applies: Staphylococcus aureus, VISA, read-out: MIC SA 2012, Staphylococcus aureus 2012 (VISA); class symbols. The method, then: as §1
The subject of experiment [6] is Enterococcus faecalis 848 (VRE, Van A). The experiment is described as follows: MIC by broth microdilution, EFc 848. The conditions noted are these: Enterococcus faecalis, VRE, read-out: MIC E FC 848, Enterococcus faecalis 848 (VRE, Van A); class symbols. The method, then: as §1
The next experiment deals with Enterococcus faecium 800. In words: MIC by broth microdilution, EFcm 800. The following applies: Enterococcus faecium, 800, read-out: MIC E FCM 800. The method, then: as §1
For experiment [7], the system named is Streptococcus pyogenes 712. The experiment is described as follows: MIC by broth microdilution, SPY 712. The following applies: Streptococcus pyogenes, 712, read-out: MIC S PYO 712. Here is the method:
as §1

The test system of experiment [8] is Staphylococcus aureus 100 (ATCC 29213). The experiment is described as follows: MIC by broth microdilution, SA 100. The conditions noted are these: Staphylococcus aureus, ATCC29213, read-out: MIC SA 100. The method, then: as §1
Experiment [9] concerns Staphylococcus aureus 757 (MRSA). In words: MIC by broth microdilution, SA 757. The conditions noted are these: Staphylococcus aureus, MRSA, read-out: MIC SA 757. The method, then:
as §1

In experiment [10] the test system is Streptococcus pneumoniae 1195 (ATCC 49619). The experiment is described as follows: MIC by broth microdilution, SPNE 1195. The following applies: Streptococcus pneumoniae, ATCC49619, read-out: MIC S PNE 1195. The method, then:
as §1

For the compound `CNCCCCCNC(=O)Oc1cc(O)c2c(c1)[C@@H](C(=O)NC1C3CC4CC(C3)CC1C4)NC(=O)[C@H]1NC(=O)[C@H](NC(=O)[C@@H]3NC(=O)[C@H](CC(N)=O)NC(=O)[C@H](NC(=O)[C@@H](CC(C)C)NC)[C@H](O)c4ccc(c(Cl)c4)Oc4cc3cc(c4O[C@@H]3O[C@H](CO)[C@@H](O)[C@H](O)[C@H]3O[C@H]3C[C@](C)(N)[C@H](O)[C@H](C)O3)Oc3ccc(cc3Cl)[C@H]1O)c1ccc(O)c-2c1` (stereo partly drawn) [Compound 336], the MIC in experiment [1] was 0.01 to 0.5 µg/mL (≈ 0.0058 to 0.29 µM); in experiment [2], 0.01 to 0.5 µg/mL (≈ 0.0058 to 0.29 µM); in experiment [3], 0.01 to 0.5 µg/mL (≈ 0.0058 to 0.29 µM); in [4], greater than 16 µg/mL; in experiment [5], 1 to 2 µg/mL (≈ 0.58 to 1.16 µM); in [6] it was greater than 16 µg/mL. Also, the MIC (with Enterococcus faecium 800; in experiment [7]; in [8]; in [9]; in experiment [10]) was 0.01 to 0.5 µg/mL (≈ 0.0058 to 0.29 µM) each time.

As to `CCCCCCCCNC(=O)Oc1cc(O)c2c(c1)[C@@H](C(=O)NC1C3CC4CC(C3)CC1C4)NC(=O)[C@H]1NC(=O)[C@H](NC(=O)[C@@H]3NC(=O)[C@H](CC(N)=O)NC(=O)[C@H](NC(=O)[C@@H](CC(C)C)NC)[C@H](O)c4ccc(c(Cl)c4)Oc4cc3cc(c4OC3OC(CO)C(O)C(O)C3OC3CC(C)(N)C(O)C(C)O3)Oc3ccc(cc3Cl)[C@H]1O)c1ccc(O)c-2c1` (stereo partly drawn) [Compound 33], the MIC was in the range of 0.01 to 0.5 µg/mL (≈ 0.00575 to 0.288 µM) in experiment [1]; 0.01 to 0.5 µg/mL (≈ 0.00575 to 0.288 µM) in [2]; 0.01 to 0.5 µg/mL (≈ 0.00575 to 0.288 µM) in experiment [3]; 0.5 to 1 µg/mL (≈ 0.288 to 0.575 µM) in experiment [4]; 0.5 to 1 µg/mL (≈ 0.288 to 0.575 µM) in experiment [5]; 2 to 4 µg/mL (≈ 1.15 to 2.3 µM) in [6]. Moreover, the MIC (with Enterococcus faecium 800; in experiment [7]; in experiment [8]; in [9]; in experiment [10]) was 0.01 to 0.5 µg/mL (≈ 0.00575 to 0.288 µM) throughout.

Consider `CCCCCOc1ccc(CCNC(=O)Oc2cc(O)c3c(c2)[C@@H](C(=O)NC2C4CC5CC(C4)CC2C5)NC(=O)[C@H]2NC(=O)[C@H](NC(=O)[C@@H]4NC(=O)[C@H](CC(N)=O)NC(=O)[C@H](NC(=O)[C@@H](CC(C)C)NC)[C@H](O)c5ccc(c(Cl)c5)Oc5cc4cc(c5O[C@@H]4O[C@H](CO)[C@@H](O)[C@H](O)[C@H]4O[C@H]4C[C@](C)(N)[C@H](O)[C@H](C)O4)Oc4ccc(cc4Cl)[C@H]2O)c2ccc(O)c-3c2)cc1` (stereo partly drawn) [Compound 338], for which the MIC (in experiment [1]; in experiment [2]; in [3]; in the experiment on Enterococcus faecium 800; in [7]; in experiment [8]) was 0.01 to 0.5 µg/mL (≈ 0.00551 to 0.275 µM) in each case. In addition, the MIC in experiment [9] and in [10] was 0.01 to 0.5 µg/mL (≈ 0.00551 to 0.275 µM) throughout.
